Molecules are shown by their SMILES. The source made the active and inactive calls. The rule behind the calls is not given here.

Among the data in ChEMBL document CHEMBL4334521, “Neuroprotective Dihydro-β-agarofuran-Type Sesquiterpenes from the Seeds of Euonymus maackii” (2019) are Activity values, retold here.

One assay has as its system SH-SY5Y. Description: Neuroprotective activity against amyloid beta (25 to 35)-induced cytotoxicity in human SH-SY5Y cells at 10 uM preincubated for 2 hrs followed by amyloid beta (25 to 35)-stimulation and measured after 24 hrs by MTT assay (reference value: 71.18 +/- 1.34). Type of assay: functional. (Tetrazolium assays rely on reduction of a dye to a coloured formazan, in cell work by metabolically active cells.)
As for `CC(=O)OC[C@]12[C@H](OC(=O)c3ccoc3)C[C@@H]3[C@@H](OC(C)=O)[C@]1(OC3(C)C)[C@@](C)(O)C[C@H](OC(=O)c1ccccc1)[C@@H]2OC(=O)c1ccoc1`, the Activity is on record as 80.8%.
As for `CC(=O)OC[C@]12[C@H](OC(C)=O)[C@H](OC(=O)c3ccccc3)[C@@H]3[C@@H](OC(C)=O)[C@]1(OC3(C)C)[C@H](C)C[C@H](OC(C)=O)[C@@H]2OC(=O)c1ccccc1`, the Activity is given as 80.75%.
The same measure, in the same setting: as for `CC(=O)OC[C@]12[C@H](OC(C)=O)[C@H](OC(=O)c3ccccc3)[C@@H]3[C@@H](OC(C)=O)[C@]1(OC3(C)C)[C@H](C)C[C@H](OC(=O)c1ccccc1)[C@@H]2OC(=O)c1ccccc1`, the figure is 80.92%.
The same measure, in the same setting: as for `CC(=O)OC[C@]12[C@@H](OC(=O)c3ccccc3)C[C@@H]3[C@@H](OC(C)=O)[C@]1(OC3(C)C)[C@H](C)C[C@H](OC(=O)c1ccccc1)[C@@H]2OC(C)=O`, the figure is 83.04%.
Molecule `CCC(C)C(=O)O[C@H]1[C@@H](OC(C)=O)C[C@@H](C)[C@]23OC(C)(C)[C@H](C[C@@H](OC(=O)c4ccccc4)[C@]12COC(C)=O)[C@H]3OC(C)=O` (some centres not stated) yielded an Activity of 88.34%.
`CC(=O)OC[C@]12[C@H](OC(=O)c3ccccc3)C[C@@H]3[C@@H](OC(C)=O)[C@]1(OC3(C)C)[C@H](C)C[C@H](OC(C)=O)[C@@H]2OC(C)=O` came in with an Activity of 79.62%.
On the same count and under the same terms, as for `CC(=O)OC[C@]12C(=O)[C@@H](OC(=O)c3ccccc3)[C@@H]3[C@@H](OC(C)=O)[C@]1(OC3(C)C)[C@H](C)C[C@H](OC(=O)c1cccnc1)[C@@H]2O`, the figure is 74.16%; as for `CCC(C)C(=O)O[C@H]1[C@@H](OC(=O)c2ccoc2)C[C@](C)(O)[C@]23OC(C)(C)[C@H](C[C@H](OC(=O)c4ccoc4)[C@]12COC(C)=O)[C@H]3OC(C)=O` (some centres not stated), 82.96%.
The same measure, in the same setting: under `CC[C@H](C)C(=O)O[C@@H]1[C@H]2[C@@H](OC(C)=O)[C@]3(OC2(C)C)[C@H](C)C[C@H](OC(=O)c2ccccc2)[C@H](OC(=O)c2ccccc2)[C@@]3(COC(C)=O)[C@@H]1OC(C)=O` stands 80.11%.
The same measure, in the same setting: under `CC(=O)OC[C@]12[C@H](OC(C)=O)[C@H](OC(=O)c3ccccc3)[C@@H]3[C@@H](OC(C)=O)[C@]1(OC3(C)C)[C@H](C)C[C@H](O)[C@@H]2OC(=O)c1ccccc1` stands 85.91%; under `CCC(C)C(=O)O[C@H]1C[C@](C)(O)[C@]23OC(C)(C)[C@H](C[C@@H](OC(=O)c4ccoc4)[C@]2(COC(C)=O)[C@H]1OC(=O)c1ccoc1)[C@H]3OC(C)=O` (some centres not stated), 71%.
Turning to `O=C(O[C@@H]1Cc2c(O)cc(O)cc2O[C@@H]1c1cc(O)c(O)c(O)c1)c1cc(O)c(O)c(O)c1` [EPIGALOCATECHIN GALLATE], the Activity came out at 87.2%.
Still for that read-out and setting: under `CC(=O)OC[C@]12[C@H](OC(=O)c3ccoc3)C[C@@H]3[C@@H](OC(C)=O)[C@]1(OC3(C)C)[C@@](C)(O)C[C@H](OC(=O)c1ccoc1)[C@@H]2OC(=O)c1ccoc1` stands 70.11%; under `CCC(C)C(=O)O[C@H]1C[C@](C)(O)[C@]23OC(C)(C)[C@H](C[C@H](OC(=O)c4ccccc4)[C@]2(COC(C)=O)[C@H]1OC(=O)C(C)CC)[C@H]3OC(C)=O` (some centres not stated), 92.86%.
The same measure, in the same setting: as for `CCCCCC(=O)O[C@H]1C[C@@H](C)[C@]23OC(C)(C)[C@H]([C@@H](OC(=O)c4ccccc4)[C@@H](OC(C)=O)[C@]2(COC(C)=O)[C@H]1OC(=O)c1ccccc1)[C@H]3OC(C)=O`, the figure is 86.65%.

For another assay, the species on record is Danio rerio. Description: Neuroprotective activity against PTZ-induced seizure in zebra fish AB at 10 uM pretreated for 24 hrs followed by PTZ-stimulation and measured after 15 mins. The class given is functional, organism-based.
Consider `CC(=O)OC[C@]12[C@H](OC(C)=O)[C@H](OC(=O)c3ccccc3)[C@@H]3[C@@H](OC(C)=O)[C@]1(OC3(C)C)[C@H](C)C[C@H](OC(C)=O)[C@@H]2OC(=O)c1ccccc1`, for which the result was Active.
Same read-out and setting: as for `CC(=O)OC[C@]12[C@@H](OC(=O)c3ccccc3)C[C@@H]3[C@@H](OC(C)=O)[C@]1(OC3(C)C)[C@H](C)C[C@H](OC(=O)c1ccccc1)[C@@H]2OC(C)=O`, the entry is “inactive”.
